Data taken from the NIST ThermoML archive (doi:10.1021/acs.jced.7b01034).
± gives the expanded uncertainty stated by the source.

Experiments:
[1] = molar heat capacity at constant pressure; settings: 100 kPa, Crystal, DSC
[2] = Molar enthalpy of transition or fusion; settings: Crystal; DSC
[3] = Crystal; DTA

O=c1cc(-c2ccccc2)oc2cc(O)ccc12 [7-hydroxyflavone]
[1]
Settings | molar heat capacity at constant pressure [J/K/mol]
293.15 K | 248.1 ± 12
298.15 K | 253.1 ± 13
303.15 K | 259.1 ± 13
308.15 K | 263.4 ± 13
313.15 K | 268.2 ± 13
318.15 K | 272 ± 14
323.15 K | 276.8 ± 14
328.15 K | 282.1 ± 14
333.15 K | 286 ± 14
338.15 K | 291.4 ± 15
343.15 K | 295.3 ± 15
348.15 K | 299.4 ± 15
353.15 K | 303.6 ± 15
358.15 K | 307.6 ± 15
363.15 K | 312.3 ± 16
368.15 K | 316.2 ± 16
373.15 K | 320.7 ± 16
378.15 K | 324.4 ± 16
383.15 K | 328.2 ± 16
388.15 K | 332.4 ± 17
393.15 K | 336 ± 17
398.15 K | 340.1 ± 17
403.15 K | 343.3 ± 17
408.15 K | 347 ± 17
413.15 K | 351.4 ± 18
418.15 K | 355.2 ± 18
423.15 K | 358.2 ± 18
428.15 K | 361.9 ± 18
433.15 K | 366.3 ± 18
438.15 K | 369.6 ± 18
443.15 K | 372.3 ± 19
448.15 K | 376.7 ± 19
453.15 K | 379.5 ± 19
458.15 K | 382.7 ± 19
463.15 K | 385.8 ± 19
468.15 K | 388.5 ± 19
473.15 K | 390.8 ± 20
478.15 K | 391.9 ± 20
483.15 K | 394 ± 20
488.15 K | 398.1 ± 20
493.15 K | 400.9 ± 20
498.15 K | 406.2 ± 20

Settings | Molar enthalpy of transition or fusion [kcal/mol] | Normal melting temperature [°C]
[2] | 7.46 ± 0.287 | –
[3] | – | 242.1 ± 1.2

O=c1c(O)c(-c2ccccc2)oc2ccccc12 [3-hydroxyflavone]
[1]
Settings | molar heat capacity at constant pressure [J/K/mol]
293.15 K | 268.9 ± 13
298.15 K | 270.1 ± 14
303.15 K | 272.8 ± 14
308.15 K | 275.3 ± 14
313.15 K | 278.3 ± 14
318.15 K | 280.8 ± 14
323.15 K | 284.2 ± 14
328.15 K | 287.6 ± 14
333.15 K | 291.5 ± 15
338.15 K | 295.2 ± 15
343.15 K | 298.9 ± 15
348.15 K | 303.2 ± 15
353.15 K | 306.8 ± 15
358.15 K | 310.8 ± 16
363.15 K | 315 ± 16
368.15 K | 319.4 ± 16
373.15 K | 323.7 ± 16
378.15 K | 328 ± 16
383.15 K | 332 ± 17
388.15 K | 336.9 ± 17
393.15 K | 341.6 ± 17
398.15 K | 346.8 ± 17
403.15 K | 351.6 ± 18
408.15 K | 356.3 ± 18
413.15 K | 361.2 ± 18
418.15 K | 366 ± 18
423.15 K | 372.3 ± 19
428.15 K | 379 ± 19
433.15 K | 386 ± 19

Settings | Molar enthalpy of transition or fusion [kcal/mol] | Normal melting temperature [°C]
[2] | 7.76 ± 0.287 | –
[3] | – | 170.5 ± 0.5

c1ccc2cc3ccccc3cc2c1 [anthracene]
[1]
Settings | molar heat capacity at constant pressure [J/K/mol]
293.15 K | 205.7 ± 10
298.15 K | 209.9 ± 10
303.15 K | 213.9 ± 11
308.15 K | 217.6 ± 11
313.15 K | 221.7 ± 11
318.15 K | 225.4 ± 11
323.15 K | 229.6 ± 12
328.15 K | 234.2 ± 12
333.15 K | 237.9 ± 12
338.15 K | 242.2 ± 12
343.15 K | 246.5 ± 12
348.15 K | 250.7 ± 12
353.15 K | 254.9 ± 13
358.15 K | 258.8 ± 13
363.15 K | 262.9 ± 13
368.15 K | 266.9 ± 13
373.15 K | 270.6 ± 14
378.15 K | 275.2 ± 14
383.15 K | 279.2 ± 14
388.15 K | 283.2 ± 14
393.15 K | 286.9 ± 14
398.15 K | 291.7 ± 15
403.15 K | 295.8 ± 15
408.15 K | 299.3 ± 15
413.15 K | 303.3 ± 15
418.15 K | 306.8 ± 15
423.15 K | 309.9 ± 16
428.15 K | 313.4 ± 16
433.15 K | 317.4 ± 16

Settings | Molar enthalpy of transition or fusion [kcal/mol] | Normal melting temperature [°C]
[2] | 7.33 ± 0.406 | –
[3] | – | 216.6 ± 0.6

O=C(O)c1ccccc1 [benzoic acid]
[1]
Settings | molar heat capacity at constant pressure [J/K/mol]
293.15 K | 143.2 ± 7.2
298.15 K | 145.2 ± 7.3
303.15 K | 147.5 ± 7.4
308.15 K | 149.6 ± 7.5
313.15 K | 151.4 ± 7.6
318.15 K | 153 ± 7.7
323.15 K | 155.4 ± 7.8
328.15 K | 157.8 ± 7.9
333.15 K | 160 ± 8
338.15 K | 162.2 ± 8.1
343.15 K | 164.4 ± 8.2
348.15 K | 166.6 ± 8.3
353.15 K | 169.1 ± 8.5
358.15 K | 171.7 ± 8.6
363.15 K | 174.4 ± 8.7
368.15 K | 176.8 ± 8.8
373.15 K | 179.2 ± 9
378.15 K | 182 ± 9.1
383.15 K | 185.4 ± 9.3
388.15 K | 190.1 ± 9.5

Settings | Molar enthalpy of transition or fusion [kcal/mol] | Normal melting temperature [°C]
[2] | 4.44 ± 0.151 | –
[3] | – | 122.2 ± 0.5
